Experimental data from patent publication US20230219986A1, “NOVEL AMINOPYRIMIDINE EGFR INHIBITOR” (QILU PHARMACEUTICAL CO., LTD., priority 2020, published 2023).
Counter-ions that a name gives are not always drawn. Like-named read-outs stand apart in the source and are kept apart here.

Columns and labels:
[1] = molecular target: Ba/F3 L858R/T790M/C797S EGFR triple mutant cell line (Homo sapiens, UniProt P00533, T790M/C797S/L858R, cells depend on it); test: Cell proliferation inhibition experiment (CellTiter-Glo), Ba/F3 L858R/T790M/C797S; type: cell-based; settings: 72 hours, Cell Titer-Glo, read-out: Ba/F3 (L858R/T790M/C797S) IC50
Method: (§1) 3) 30 nL of gradient diluted compound was transferred into the 384-well experimental plate using Echo 550 (Labcyte) at a DMSO final concentration of 0.1%, and the culture plate was incubated in a cell incubator for 72 hours (37° C., 5% CO2).
(§2) 4) 30 μL of Cell Titer-Glo reagent was added to each well and left for 30 minutes at room temperature and protected from light.
(§3) 5) Envision microplate reader (PerkinElmer) detected chemiluminescence signals.
(§4) 6) GraphPad Prism 8 software was used for data analysis to obtain the IC50 of the compounds of the present disclosure and the positive control.

wild-type EGFR = molecular target: T1, wild-type EGFR (Homo sapiens, UniProt P00533); test: Enzymology experiment in vitro (HTRF/FRET kinase activity), wild-type EGFR; type: biochemical; settings: HTRF KinEASE-TK, read-out: EGFR (WT) IC50
T1 construct: purchased Signalchem
Method: (§5) 1. Experimental Materials
(§6) HTRF KinEASE-TK kit detection reagent, purchased from Cisbio
(§7) 1) 10 nL of gradient diluted compound was transferred into a 384-well experimental plate using Echo 550 (Labcyte).
(§8) 2) 5 μL of 2×EGFR enzyme solution was added to the 384-well experimental plate and incubated at room temperature for 10 minutes.
(§9) 3) 5 μL of 2× substrate solution containing polypeptide and ATP was added to the 384-well experimental plate and incubated at room temperature for 40 minutes.
(§10) 4) 10 μL of detection solution containing EDTA, XL665-labeled streptavidin and Eu^3+-labeled antibody was added thereto and incubated at room temperature for 1 hour.

[2] = system: EGFR wild-type cell line A431; test: Cell proliferation inhibition experiment (CellTiter-Glo), A431; type: cell-based; settings: Homo sapiens, A431 cells, Cell Titer-Glo, read-out: A431 EGFR WT IC50
Method: A431 cells, purchased from ATCC.
1) A431 cells were inoculated in a 384-well culture plate at a density of 800 cells per well, 30 μL per well, placed in a cell incubator, and cultured for 24 hours (37° C., 5% CO2).
as §1, §2, §3, §4

[3] = molecular target: T2, L858R/T790M/C797S triple mutant EGFR (Homo sapiens, UniProt P00533, C797S/L858R/T790M); test: Enzymology experiment in vitro (HTRF/FRET kinase activity), L858R/T790M/C797S triple mutant EGFR; type: biochemical; settings: HTRF KinEASE-TK, read-out: EGFR (L858R/T790M/C797S) IC50
T2 construct: purchased Signalchem
Method: as §5, §6, §7, §8, §9, §10

[4] = molecular target: Ba/F3 De119/T790M/C797S EGFR triple mutant cell line (Homo sapiens, UniProt P00533, T790M/C797S, cells depend on it, form not given); test: Cell proliferation inhibition experiment (CellTiter-Glo), Ba/F3 De119/T790M/C797S; type: cell-based; settings: Ba/F3 Del19/T790M/C797S EGFR triple mutant cells, 72 hours, Cell Titer-Glo; read-out: Ba/F3 (Del19/T790M/C797S) IC50
Method: as §1, §2, §3, §4

T2 sequence (P00533 25-1210 T790M/C797S/L858R): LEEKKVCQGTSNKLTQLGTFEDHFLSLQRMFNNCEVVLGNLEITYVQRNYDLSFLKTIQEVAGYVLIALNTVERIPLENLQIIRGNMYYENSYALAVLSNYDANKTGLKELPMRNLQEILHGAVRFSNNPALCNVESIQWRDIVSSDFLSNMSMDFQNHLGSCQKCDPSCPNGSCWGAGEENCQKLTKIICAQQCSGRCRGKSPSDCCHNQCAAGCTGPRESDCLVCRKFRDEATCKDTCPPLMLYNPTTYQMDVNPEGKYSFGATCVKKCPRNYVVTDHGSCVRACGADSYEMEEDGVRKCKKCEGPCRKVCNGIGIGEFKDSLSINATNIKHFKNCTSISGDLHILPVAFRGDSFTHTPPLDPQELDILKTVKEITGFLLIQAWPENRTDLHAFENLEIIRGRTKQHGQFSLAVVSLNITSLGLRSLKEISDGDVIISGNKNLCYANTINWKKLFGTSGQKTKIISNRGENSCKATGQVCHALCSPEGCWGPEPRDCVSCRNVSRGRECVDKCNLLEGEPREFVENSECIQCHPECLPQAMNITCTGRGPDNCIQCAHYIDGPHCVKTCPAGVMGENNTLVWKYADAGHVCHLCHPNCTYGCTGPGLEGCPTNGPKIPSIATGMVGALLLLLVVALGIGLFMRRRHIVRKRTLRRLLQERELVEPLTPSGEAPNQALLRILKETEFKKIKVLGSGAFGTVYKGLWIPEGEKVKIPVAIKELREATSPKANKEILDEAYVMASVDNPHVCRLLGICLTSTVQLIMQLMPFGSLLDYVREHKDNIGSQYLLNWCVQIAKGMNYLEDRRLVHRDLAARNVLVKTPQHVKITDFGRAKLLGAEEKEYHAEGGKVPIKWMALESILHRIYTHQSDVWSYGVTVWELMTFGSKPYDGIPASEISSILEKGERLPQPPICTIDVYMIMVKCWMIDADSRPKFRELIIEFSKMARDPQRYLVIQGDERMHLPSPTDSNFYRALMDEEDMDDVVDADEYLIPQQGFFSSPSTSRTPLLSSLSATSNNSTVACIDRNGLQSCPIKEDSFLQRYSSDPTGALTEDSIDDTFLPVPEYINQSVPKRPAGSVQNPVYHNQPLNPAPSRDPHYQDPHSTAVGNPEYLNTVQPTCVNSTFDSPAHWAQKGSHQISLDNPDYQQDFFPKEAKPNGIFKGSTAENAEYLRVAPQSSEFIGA
Ba/F3 L858R/T790M/C797S EGFR triple mutant cell line, sequence (P00533 whole entry T790M/C797S/L858R): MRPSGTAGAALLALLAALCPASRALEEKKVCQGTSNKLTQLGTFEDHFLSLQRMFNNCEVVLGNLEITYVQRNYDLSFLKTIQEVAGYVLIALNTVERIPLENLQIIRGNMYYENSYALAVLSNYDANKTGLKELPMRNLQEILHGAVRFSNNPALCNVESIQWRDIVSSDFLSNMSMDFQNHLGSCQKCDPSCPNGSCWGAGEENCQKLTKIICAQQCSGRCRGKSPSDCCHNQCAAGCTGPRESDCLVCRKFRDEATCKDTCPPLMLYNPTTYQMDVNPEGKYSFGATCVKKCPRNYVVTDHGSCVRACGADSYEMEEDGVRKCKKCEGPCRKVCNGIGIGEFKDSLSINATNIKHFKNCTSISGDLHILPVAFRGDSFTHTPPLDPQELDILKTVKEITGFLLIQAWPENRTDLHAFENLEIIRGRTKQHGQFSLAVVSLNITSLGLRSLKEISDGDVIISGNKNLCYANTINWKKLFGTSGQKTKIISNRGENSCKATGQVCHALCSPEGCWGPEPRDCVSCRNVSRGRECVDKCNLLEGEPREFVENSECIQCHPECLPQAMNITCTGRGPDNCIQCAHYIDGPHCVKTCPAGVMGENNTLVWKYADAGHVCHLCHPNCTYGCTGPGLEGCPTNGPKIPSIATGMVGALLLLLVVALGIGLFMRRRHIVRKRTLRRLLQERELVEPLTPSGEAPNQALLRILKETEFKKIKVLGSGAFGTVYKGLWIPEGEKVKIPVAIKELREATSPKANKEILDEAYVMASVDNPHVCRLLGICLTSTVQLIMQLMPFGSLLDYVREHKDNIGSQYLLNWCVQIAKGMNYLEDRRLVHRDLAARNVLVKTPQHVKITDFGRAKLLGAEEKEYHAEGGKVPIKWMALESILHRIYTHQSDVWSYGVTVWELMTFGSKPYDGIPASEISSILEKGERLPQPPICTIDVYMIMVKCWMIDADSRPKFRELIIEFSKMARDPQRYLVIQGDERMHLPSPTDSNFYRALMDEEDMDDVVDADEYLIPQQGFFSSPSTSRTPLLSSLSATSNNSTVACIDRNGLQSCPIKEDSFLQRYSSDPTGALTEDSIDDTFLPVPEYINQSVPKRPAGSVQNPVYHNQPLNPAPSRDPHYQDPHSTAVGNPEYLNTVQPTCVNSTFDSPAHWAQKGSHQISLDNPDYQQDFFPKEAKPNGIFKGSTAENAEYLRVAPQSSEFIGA
Ba/F3 De119/T790M/C797S EGFR triple mutant cell line, sequence (P00533 with tags, fused parts or gaps DEL746-750/T790M/C797S, form open): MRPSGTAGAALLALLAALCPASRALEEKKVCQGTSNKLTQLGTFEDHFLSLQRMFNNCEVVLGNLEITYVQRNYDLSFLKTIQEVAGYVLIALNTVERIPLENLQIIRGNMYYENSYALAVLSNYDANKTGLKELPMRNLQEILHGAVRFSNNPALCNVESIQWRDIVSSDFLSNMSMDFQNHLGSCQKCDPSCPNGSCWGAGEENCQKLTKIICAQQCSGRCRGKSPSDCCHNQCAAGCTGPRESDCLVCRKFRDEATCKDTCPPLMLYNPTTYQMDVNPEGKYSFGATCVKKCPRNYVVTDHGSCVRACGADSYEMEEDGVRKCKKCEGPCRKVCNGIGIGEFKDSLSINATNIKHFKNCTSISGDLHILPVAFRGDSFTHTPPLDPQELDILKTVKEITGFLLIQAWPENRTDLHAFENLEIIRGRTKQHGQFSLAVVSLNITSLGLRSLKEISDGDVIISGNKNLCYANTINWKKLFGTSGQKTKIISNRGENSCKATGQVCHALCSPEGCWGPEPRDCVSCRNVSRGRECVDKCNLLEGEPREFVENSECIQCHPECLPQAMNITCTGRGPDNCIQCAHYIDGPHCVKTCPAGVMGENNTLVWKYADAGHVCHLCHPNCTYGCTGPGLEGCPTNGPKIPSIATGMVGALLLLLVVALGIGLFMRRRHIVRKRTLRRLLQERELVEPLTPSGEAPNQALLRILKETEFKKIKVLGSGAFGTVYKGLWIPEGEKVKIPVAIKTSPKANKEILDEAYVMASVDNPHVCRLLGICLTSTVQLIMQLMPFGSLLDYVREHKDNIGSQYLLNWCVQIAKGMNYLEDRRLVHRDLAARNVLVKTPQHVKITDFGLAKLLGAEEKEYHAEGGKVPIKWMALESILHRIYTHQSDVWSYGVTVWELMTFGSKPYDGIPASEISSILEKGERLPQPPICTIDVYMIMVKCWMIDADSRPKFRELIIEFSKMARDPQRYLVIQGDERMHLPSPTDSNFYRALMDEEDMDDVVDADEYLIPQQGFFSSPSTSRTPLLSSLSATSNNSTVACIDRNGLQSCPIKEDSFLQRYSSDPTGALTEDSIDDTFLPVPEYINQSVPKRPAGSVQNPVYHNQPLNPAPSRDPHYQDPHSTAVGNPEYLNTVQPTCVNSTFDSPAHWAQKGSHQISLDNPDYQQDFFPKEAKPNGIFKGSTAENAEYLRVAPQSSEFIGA
T1 sequence (P00533 25-1210): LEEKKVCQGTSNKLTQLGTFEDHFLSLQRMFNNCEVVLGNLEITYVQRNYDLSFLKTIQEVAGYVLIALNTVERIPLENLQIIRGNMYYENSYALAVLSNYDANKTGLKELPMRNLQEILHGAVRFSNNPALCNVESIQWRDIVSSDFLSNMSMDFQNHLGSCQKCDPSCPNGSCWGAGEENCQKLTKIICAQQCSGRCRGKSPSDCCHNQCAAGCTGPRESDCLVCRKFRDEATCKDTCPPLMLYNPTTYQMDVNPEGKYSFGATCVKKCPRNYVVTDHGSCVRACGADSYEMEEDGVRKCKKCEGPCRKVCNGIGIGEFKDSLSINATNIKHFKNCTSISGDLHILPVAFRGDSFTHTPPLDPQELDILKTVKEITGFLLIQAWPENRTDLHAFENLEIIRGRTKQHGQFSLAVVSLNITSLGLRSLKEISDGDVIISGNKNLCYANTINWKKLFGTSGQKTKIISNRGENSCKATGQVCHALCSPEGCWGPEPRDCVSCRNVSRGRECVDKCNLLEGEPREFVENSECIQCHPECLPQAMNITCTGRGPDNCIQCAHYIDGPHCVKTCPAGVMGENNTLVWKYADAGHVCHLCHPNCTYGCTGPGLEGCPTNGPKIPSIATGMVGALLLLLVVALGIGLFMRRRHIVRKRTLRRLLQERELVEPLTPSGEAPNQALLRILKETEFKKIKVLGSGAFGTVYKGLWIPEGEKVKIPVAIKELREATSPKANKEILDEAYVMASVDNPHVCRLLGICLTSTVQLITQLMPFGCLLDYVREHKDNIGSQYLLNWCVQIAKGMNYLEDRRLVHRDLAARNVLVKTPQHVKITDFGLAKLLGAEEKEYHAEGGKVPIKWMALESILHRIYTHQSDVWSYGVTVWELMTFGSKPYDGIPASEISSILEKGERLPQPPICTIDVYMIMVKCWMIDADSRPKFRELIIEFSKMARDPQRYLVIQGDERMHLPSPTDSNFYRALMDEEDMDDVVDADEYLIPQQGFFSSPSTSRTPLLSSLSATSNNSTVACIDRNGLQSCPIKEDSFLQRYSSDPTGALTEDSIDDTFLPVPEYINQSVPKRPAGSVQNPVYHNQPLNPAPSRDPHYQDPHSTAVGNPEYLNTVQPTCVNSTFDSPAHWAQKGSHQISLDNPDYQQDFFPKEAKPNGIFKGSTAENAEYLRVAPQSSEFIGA

| GI50 [1] [nM] | IC50 (wild-type EGFR) [nM] | IC50 [3] [nM] | GI50 [4] [nM] | IC50 ([2]; A-431, 72 h) [nM] | SMILES | IC50 ([2]; A-431, 72 hours) [nM] |
| --- | --- | --- | --- | --- | --- | --- |
| 2.13 | 3.61 | 0.08 | 1.28 | 67.8 | Cn1cc(-c2cc(Nc3ncc(Br)c(Nc4ccc5nccnc5c4P(C)(C)=O)n3)c3c(c2N2CCOCC2)CCO3)cn1 [Compound 17, (6-((5-bromo-2-((5-(1-methyl-1H-pyrazol-4-yl)-4-morpholino-2,3-dihydrobenzofuran-7-yl)amino)pyrimidin-4-yl)amino)quinoxalin-5-yl)dimethylphosphine oxide] | – |
| 12.8 | 0.38 | 0.25 | 4.58 | 194 | CCc1cnc(Nc2cc(-c3cnn(C)c3)c(N3CCOCC3)cc2OC)nc1Nc1ccc2nccnc2c1P(C)(C)=O [Compound 31, (6-((5-ethyl-2-((2-methoxy-5-(1-methyl-1H-pyrazol-4-yl)-4-morpholinylphenyl)amino)pyrimidin-4-yl)amino)quinoxalin-5-yl)dimethylphosphine oxide] | – |
| 32.5 | 50.2 | 0.26 | 10.1 | 1420 | COc1cc(N2CCOCC2)c(-c2cnn(C)c2)cc1Nc1ncc(Br)c(Nc2cc(C)c3nccnc3c2P(C)(C)=O)n1 [Compound 33, (6-((5-bromo-2-((2-methoxy-5-(1-methyl-1H-pyrazol-4-yl)-4-morpholinylphenyl)amino)pyrimidin-4-yl)amino)-8-methylquinoxalin-5-yl)dimethylphosphine oxide] | – |
| 327 | 384 | 11.9 | 93.2 | 752 | COc1cc(S(=O)(=O)N(C)C)c(-c2cnn(C)c2)cc1Nc1ncc(Br)c(Nc2ccc3nccnc3c2P(C)(C)=O)n1 [Compound 35, 4-((5-bromo-4-((5-(dimethylphosphoryl)quinoxalin-6-yl)amino)pyrimidin-2-yl)amino)-5-methoxy-N,N-dimethyl-2-(1-methyl-1H-pyrazol-4-yl)benzenesulfonamide] | – |
| 34.5 | 21.1 | 0.31 | 8.64 | 371 | COc1cc(N2CCOCC2)c(-c2cnn(C)c2)cc1Nc1ncc(C2CC2)c(Nc2ccc3nccnc3c2P(C)(C)=O)n1 [Compound 41, (6-((5-cyclopropyl-2-((2-methoxy-5-(1-methyl-1H-pyrazol-4-yl)-4-morpholinylphenyl)amino)pyrimidin-4-yl)amino)quinoxalin-5-yl)dimethylphosphine oxide] | – |
| 69.2 | 166 | 1.24 | 6.76 | ≥ 5000 | COc1cc(N2CCOCC2)c(-c2cnn(C)c2)cc1Nc1nccc(Nc2ccc3nccnc3c2P(C)(C)=O)n1 [Compound 42, (6-((2-((2-methoxy-5-(1-methyl-1H-pyrazol-4-yl)-4-morpholinophenyl)amino)pyrimidin-4-yl)amino)quinoxalin-5-yl)dimethylphosphine oxide] | – |
| 19.2 | 17.4 | 0.17 | 5.91 | 303 | COc1cc(C2CCOCC2)c(-c2cnn(C)c2)cc1Nc1ncc(Br)c(Nc2ccc3nccnc3c2P(C)(C)=O)n1 [Compound 69] | – |
| 13.5 | 29.9 | 0.45 | 9.89 | 633 | COc1cc(N2CCOCC2)c(-c2cnn(C)c2)cc1Nc1ncc(Br)c(Nc2cc3c(cc2P(C)(C)=O)CC3)n1 [Compound 79, (4-((5-bromo-2-((2-methoxy-5-(1-methyl-1H-pyrazol-4-yl)-4-morpholinylphenyl)amino)pyrimidin-4-yl)amino)bicyclo[4.2.0]octa-1,3,5-trien-3-yl)dimethylphosphine oxide] | – |
| 10.1 | 8.85 | 0.01 | 5.37 | 415 | COc1cc(N2CCOCC2)c(-c2cnn(C)c2)cc1Nc1ncc(Br)c(Nc2ccccc2NS(C)(=O)=O)n1 [Compound 80] | – |
| 21.7 | 18.2 | 0.28 | 7.85 | 180 | Cn1cc(-c2cc(Nc3ncc(Br)c(Nc4ccc5nccnc5c4P(C)(C)=O)n3)c3c(c2)OCO3)cn1 [Compound 82, (6-((5-bromo-2-((6-(1-methyl-1H-pyrazol-4-yl)benzo[d][1,3]dioxol-4-yl)amino)pyrimidin-4-yl)amino)quinoxalin-5-yl)dimethylphosphine oxide] | – |
| 4.45 | 4.26 | 0.09 | 2.18 | 40.9 | COc1cc(N2CCN(C(C)C)CC2)c(-c2cnn(C)c2)cc1Nc1ncc(Br)c(Nc2ccc3nccnc3c2P(C)(C)=O)n1 [Compound 88, (6-((5-bromo-2-((4-(4-isopropylpiperazin-1-yl)-2-methoxy-5-(1-methyl-1H-pyrazol-4-yl)phenyl)amino)pyrimidin-4-yl)amino)quinoxalin-5-yl)dimethylphosphine oxide] | – |
| 444 | 1250 | 22 | 281 | 2240 | COc1cc(N2CCOCC2)c(-c2cnn(C)c2)cc1Nc1nc(Nc2ccccc2P(C)(C)=O)c2ccccc2n1 [compound 3] | – |
| 13.6 | 1.41 | 0.28 | 2.38 | 194 | COc1cc(N2CCOCC2)c(-c2cnn(C)c2)cc1Nc1ncc(C)c(Nc2ccc3nccnc3c2P(C)(C)=O)n1 [compound 4] | – |
| 12.7 | 8.13 | 0.03 | 3.71 | 140 | COc1ccc(-c2cnn(C)c2)cc1Nc1ncc(Br)c(Nc2ccc3nccnc3c2P(C)(C)=O)n1 [compound 5] | – |
| 110 | 75.7 | 0.88 | 55 | 450 | COc1ccc(-c2cnoc2)cc1Nc1ncc(Br)c(Nc2ccc3nccnc3c2P(C)(C)=O)n1 [compound 9] | – |
| 10.7 | 4.55 | 0.1 | 6.06 | 47 | COc1cc(N2CCC(N(C)C)C2)c(-c2cnn(C)c2)cc1Nc1ncc(Br)c(Nc2ccc3nccnc3c2P(C)(C)=O)n1 (stereo not shown) [compound 10] | – |
| 224 | 12.1 | 0.07 | 83.4 | 159 | COc1cc(N2CC3CC2CN3C)c(-c2cnn(C)c2)cc1Nc1ncc(Br)c(Nc2ccc3nccnc3c2P(C)(C)=O)n1 (stereo not shown) [compound 11] | – |
| 45.9 | 1.59 | 0.05 | 6.32 | 76.1 | COc1cc(N2CCCN(C)CC2)c(-c2cnn(C)c2)cc1Nc1ncc(Br)c(Nc2ccc3nccnc3c2P(C)(C)=O)n1 [compound 12] | – |
| 13.6 | 1.06 | 0.15 | 5.98 | 150 | COc1cc(N2CCN(C(C)=O)CC2)c(-c2cnn(C)c2)cc1Nc1ncc(Br)c(Nc2ccc3nccnc3c2P(C)(C)=O)n1 [compound 14] | – |
| 15.6 | 12.2 | < 0.05 | 4.62 | 177 | COc1cc(N2CCC3(CC2)COC3)c(-c2cnn(C)c2)cc1Nc1ncc(Br)c(Nc2ccc3nccnc3c2P(C)(C)=O)n1 [compound 15] | – |
| 20.9 | 1.26 | 0.08 | 2.87 | 45.4 | COc1cc(N2CCC(N3CCN(C)CC3)CC2)c(-c2cnn(C)c2)cc1Nc1ncc(Br)c(Nc2ccc3nccnc3c2P(C)(C)=O)n1 [compound 18] | – |
| 68.8 | 39.3 | 0.17 | 6.71 | 488 | COc1cc(N2CCOCC2)c(-c2cnoc2)cc1Nc1ncc(Br)c(Nc2ccc3nccnc3c2P(C)(C)=O)n1 [compound 19] | – |

| SMILES | GI50 [1] [nM] | IC50 (wild-type EGFR) [nM] | IC50 [3] [nM] | GI50 [4] [nM] | IC50 ([2]; A-431, 72 h) [nM] | IC50 ([2]; A-431, 72 hours) [nM] |
| --- | --- | --- | --- | --- | --- | --- |
| COc1cc(N2CCC3(CC2)CN(C)C3)c(-c2cnn(C)c2)cc1Nc1ncc(Br)c(Nc2ccc3nccnc3c2P(C)(C)=O)n1 [Compound 16, (6-((5-bromo-2-((2-methoxy-5-(1-methyl-1H-pyrazol-4-yl)-4-(2-methyl-2,7-diazaspiro[3.5]nonan-7-yl)phenyl)amino)pyrimidin-4-yl)amino)quinoxalin-5-yl)dimethylphosphine oxide formate] | 23.5 | 0.51 | 0.05 | 13.2 | – | 51.3 |
